According to ChEMBL document CHEMBL1201862, “PubChem BioAssay data set” (2004):
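A five-concentration, 48-hour dose response in 96-well plates underlies each endpoint, interpolated linearly between surrounding concentrations. GI50 marks 50% less growth.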 Calls of active or inactive are those of the source. Rule as the data show it: active = GI50 up to about 1.1 µM and inactive = higher.

How the values were obtained:
Test in all cases: growth of human tumour cells (NCI), 48 h
[1] = test system: A549
[2] = test system: BT-549
[3] = test system: EKVX
[4] = test system: HCT-116
[5] = test system: HOP-92
[6] = test system: Hs-578T
[7] = test system: MCF7
[8] = test system: MDA-N
[9] = test system: Malme-3M
[10] = test system: NCI-H23
[11] = test system: NCI-H460
[12] = test system: OVCAR-3
[13] = test system: OVCAR-4
[14] = test system: RXF 393
[15] = test system: SK-MEL-28
[16] = test system: SK-MEL-2
[17] = test system: SW-620
[18] = test system: T47D
[19] = test system: U-251
[20] = test system: PC-3

Row | Compound | GI50 [1] | GI50 [2] | GI50 [3] | GI50 [4] | GI50 [5] | GI50 [6] | GI50 [7] | GI50 [8] | GI50 [9] | GI50 [10] | GI50 [11] | GI50 [12] | GI50 [13] | GI50 [14] | GI50 [15] | GI50 [16] | GI50 [17] | GI50 [18] | GI50 [19] | GI50 [20]
1 | NS(=O)(=O)c1nnc(NC(=O)Nc2ccc(Cl)c(Cl)c2)s1 | 31 µM (inactive) | 20 µM (inactive) | 28.8 µM (inactive) | 19.5 µM (inactive) | 16.3 µM (inactive) | 29.2 µM (inactive) | 26.9 µM (inactive) | 20.5 µM (inactive) | 17.6 µM (inactive) | 18 µM (inactive) | 19.1 µM (inactive) | 24.9 µM (inactive) | 30.6 µM (inactive) | 16.7 µM (inactive) | 17.1 µM (inactive) | 25.4 µM (inactive) | 27.9 µM (inactive) | 19.9 µM (inactive) | 29.4 µM (inactive) | –
2 | COC1=CC(=O)c2c(CCNC(=O)OCc3ccccc3)n[nH]c2C1=O | 19.6 µM (inactive) | 17.5 µM (inactive) | 17.8 µM (inactive) | 12.4 µM (inactive) | – | 24.2 µM (inactive) | 8.07 µM (inactive) | 2.24 µM (inactive) | 1.76 µM (inactive) | 4.01 µM (inactive) | 15.3 µM (inactive) | 18.1 µM (inactive) | – | – | 12.1 µM (inactive) | 11 µM (inactive) | 19.5 µM (inactive) | 2.3 µM (inactive) | 13.2 µM (inactive) | 30.4 µM (inactive)
3 | O=C1Nc2ccccc2/C1=N/N=C1NCCCCN1 | > 100 µM (inactive) | > 100 µM (inactive) | > 100 µM (inactive) | > 100 µM (inactive) | > 100 µM (inactive) | > 100 µM (inactive) | > 100 µM (inactive) | > 100 µM (inactive) | > 100 µM (inactive) | > 100 µM (inactive) | > 100 µM (inactive) | > 100 µM (inactive) | > 100 µM (inactive) | – | – | > 100 µM (inactive) | > 100 µM (inactive) | 57.8 µM (inactive) | > 100 µM (inactive) | > 100 µM (inactive)
4 | COc1ccc2c(c1)CCC1=C/C(=N\NC(N)=O)CCC12C (configuration not stated) | > 10 µM (inactive) | > 10 µM (inactive) | – | > 10 µM (inactive) | > 10 µM (inactive) | 7.1 µM (inactive) | > 10 µM (inactive) | > 10 µM (inactive) | > 10 µM (inactive) | > 10 µM (inactive) | – | > 10 µM (inactive) | > 10 µM (inactive) | – | > 10 µM (inactive) | – | > 10 µM (inactive) | > 10 µM (inactive) | > 10 µM (inactive) | > 10 µM (inactive)
5 | NC(=O)NC(=O)c1cccc(CNc2ccc(C(=O)N[C@@H](CCC(=O)O)C(=O)O)cc2)n1 | > 100 µM (inactive) | > 100 µM (inactive) | > 100 µM (inactive) | > 100 µM (inactive) | > 100 µM (inactive) | > 100 µM (inactive) | > 100 µM (inactive) | > 100 µM (inactive) | – | > 100 µM (inactive) | > 100 µM (inactive) | > 100 µM (inactive) | > 100 µM (inactive) | – | > 100 µM (inactive) | > 100 µM (inactive) | > 100 µM (inactive) | – | > 100 µM (inactive) | > 100 µM (inactive)
6 | C=CC1(C)CCC2C(=CCC3C2(C)CC(O)C(O)C3(C)COC2OC(CO)C(O)C(O)C2O)C1 (configuration not stated) | > 100 µM (inactive) | > 100 µM (inactive) | > 100 µM (inactive) | > 100 µM (inactive) | > 100 µM (inactive) | > 100 µM (inactive) | > 100 µM (inactive) | > 100 µM (inactive) | > 100 µM (inactive) | > 100 µM (inactive) | 87.9 µM (inactive) | – | > 100 µM (inactive) | – | > 100 µM (inactive) | > 100 µM (inactive) | > 100 µM (inactive) | > 100 µM (inactive) | > 100 µM (inactive) | > 100 µM (inactive)
7 | NC(=S)N1N=C2c3ccccc3CCC[C@H]2[C@@H]1c1ccccc1 | 1.52 µM (inactive) | 0.406 µM (active) | 9.23 µM (inactive) | 1.26 µM (inactive) | – | 0.552 µM (active) | 0.472 µM (active) | 0.0531 µM (active) | 0.488 µM (active) | 1.84 µM (inactive) | 1.07 µM (active) | 0.661 µM (active) | 5 µM (inactive) | 1.7 µM (inactive) | 10.5 µM (inactive) | 0.236 µM (active) | 0.385 µM (active) | 10 µM (inactive) | 2.33 µM (inactive) | 1.1 µM (active)
8 | CCOP(=O)(OCC)C(F)(F)c1ccc(CC(NC(=O)OC(C)(C)C)C(=O)O)cc1 (configuration not stated) | > 10 µM (inactive) | > 10 µM (inactive) | > 10 µM (inactive) | > 10 µM (inactive) | > 10 µM (inactive) | > 10 µM (inactive) | > 10 µM (inactive) | > 10 µM (inactive) | > 10 µM (inactive) | > 10 µM (inactive) | > 10 µM (inactive) | > 10 µM (inactive) | > 10 µM (inactive) | – | > 10 µM (inactive) | – | > 10 µM (inactive) | > 10 µM (inactive) | > 10 µM (inactive) | > 10 µM (inactive)
9 | O=C(C=P(c1ccccc1)(c1ccccc1)c1ccccc1)c1ccc(-c2cccc([N+](=O)[O-])c2)s1 | 57.5 µM (inactive) | > 100 µM (inactive) | 57.7 µM (inactive) | 61.8 µM (inactive) | 16.4 µM (inactive) | 52.5 µM (inactive) | 29.4 µM (inactive) | 29.7 µM (inactive) | 81.7 µM (inactive) | 77.6 µM (inactive) | 39.4 µM (inactive) | 32.7 µM (inactive) | 31.3 µM (inactive) | 70.8 µM (inactive) | 44 µM (inactive) | – | 38.2 µM (inactive) | – | 75.2 µM (inactive) | 24.9 µM (inactive)
10 | C=C(C)[C@@H]1CCC2=C(CC[C@]3(C)[C@@H]([C@@H](CCC=C(C)C)C(=O)O)[C@H](O)C[C@@]23C)[C@@]1(C)CCC(=O)O [PORICOIC ACID G] | 42.1 µM (inactive) | 71.9 µM (inactive) | 44.6 µM (inactive) | 54.1 µM (inactive) | 32.1 µM (inactive) | > 100 µM (inactive) | – | 86.3 µM (inactive) | > 100 µM (inactive) | 87.3 µM (inactive) | 46.8 µM (inactive) | > 100 µM (inactive) | > 100 µM (inactive) | 41.4 µM (inactive) | 66.8 µM (inactive) | 70.3 µM (inactive) | > 100 µM (inactive) | > 100 µM (inactive) | 22.4 µM (inactive) | 45.6 µM (inactive)
11 | O=C(Nc1ccccc1)N1CCNC1=S | > 100 µM (inactive) | 65.5 µM (inactive) | 53 µM (inactive) | > 100 µM (inactive) | > 100 µM (inactive) | 48 µM (inactive) | > 100 µM (inactive) | > 100 µM (inactive) | > 100 µM (inactive) | > 100 µM (inactive) | 57.9 µM (inactive) | > 100 µM (inactive) | 71.6 µM (inactive) | 26.5 µM (inactive) | > 100 µM (inactive) | > 100 µM (inactive) | > 100 µM (inactive) | 60.1 µM (inactive) | > 100 µM (inactive) | –
12 | Cc1nn(-c2ccccc2)c(C)c1/C=N/NC(=O)c1sc(=S)n(-c2ccc(Cl)cc2)c1N | 6.28 µM (inactive) | 21.2 µM (inactive) | 3.55 µM (inactive) | 7.74 µM (inactive) | – | 2.4 µM (inactive) | 18 µM (inactive) | 11.5 µM (inactive) | 17.5 µM (inactive) | 18.9 µM (inactive) | 4.83 µM (inactive) | 60.3 µM (inactive) | 3.94 µM (inactive) | 2.15 µM (inactive) | 5.4 µM (inactive) | 17.3 µM (inactive) | > 100 µM (inactive) | 16.5 µM (inactive) | 6 µM (inactive) | 4.07 µM (inactive)
13 | C=C(C)C1Cc2c(cc(O)c3c(=O)c4c(oc23)C(O)Oc2cc(OC)c(OC)cc2-4)O1 (configuration not stated) | > 10 µM (inactive) | > 10 µM (inactive) | > 10 µM (inactive) | > 10 µM (inactive) | > 10 µM (inactive) | – | > 10 µM (inactive) | > 10 µM (inactive) | > 10 µM (inactive) | > 10 µM (inactive) | > 10 µM (inactive) | > 10 µM (inactive) | > 10 µM (inactive) | > 10 µM (inactive) | > 10 µM (inactive) | – | > 10 µM (inactive) | > 10 µM (inactive) | > 10 µM (inactive) | > 10 µM (inactive)
14 | CC(=O)Nc1ccc(OC2=CCN(C)CC2)cc1 | > 100 µM (inactive) | > 100 µM (inactive) | > 100 µM (inactive) | > 100 µM (inactive) | – | > 100 µM (inactive) | > 100 µM (inactive) | > 100 µM (inactive) | > 100 µM (inactive) | > 100 µM (inactive) | > 100 µM (inactive) | > 100 µM (inactive) | > 100 µM (inactive) | > 100 µM (inactive) | > 100 µM (inactive) | > 100 µM (inactive) | > 100 µM (inactive) | > 100 µM (inactive) | > 100 µM (inactive) | > 100 µM (inactive)
15 | CCSC1=N/C(=C\c2ccco2)C(NN)=N1 | > 50 µM (inactive) | > 50 µM (inactive) | > 50 µM (inactive) | > 50 µM (inactive) | > 50 µM (inactive) | > 50 µM (inactive) | – | > 50 µM (inactive) | > 50 µM (inactive) | > 50 µM (inactive) | > 50 µM (inactive) | > 50 µM (inactive) | – | > 50 µM (inactive) | > 50 µM (inactive) | > 50 µM (inactive) | > 50 µM (inactive) | > 50 µM (inactive) | > 50 µM (inactive) | > 50 µM (inactive)
